Data on 16 molecules can be found in ChEMBL document CHEMBL1130549, “Dihydroisoquinolone RGD mimics. Exploration of the aspartate isostere” (Bioorg Med Chem Lett, 1997).

Positions of bridges follow the written chain, without caps; N, C: chain ends. Non-standard residues stand in square brackets, D forms with d. Residues, ends and D or L forms follow the SMILES beside them. Pen = CC(C)(S)[C@H](N)C(=O)O; Mpa = O=C(O)CCS

What all share (type): protein-complex assay
Test [1] has as its target T1, Integrin alpha-IIb/beta-3 (Homo sapiens, UniProt P05106+P08514). In words: Inhibition of fibrinogen binding to purified human alpha IIb beta-3 integrin by 50% in an ELISA test. For orientation: In an ELISA, binding on a coated surface is turned into a signal by an enzyme label.
For test [2], the target named is T1, Integrin alpha-IIb/beta-3. In words: Inhibition of fibrinogen binding to purified Human alphaIIb-beta3 integrin in ELISA with 4.5% bovine serum albumin (BSA).
Test [3] deals with T1, Integrin alpha-IIb/beta-3. In words: Inhibition of fibrinogen binding to purified Human alphaIIb-beta3 integrin in ELISA with 1% bovine serum albumin (BSA).
For test [4], the target named is T1, Integrin alpha-IIb/beta-3. In words: Inhibition of fibrinogen binding to purified Human alphaIIb-beta3 integrin in ELISA with 0.1% bovine serum albumin (BSA).

T1 sequence (P05106 27-788 limits assumed): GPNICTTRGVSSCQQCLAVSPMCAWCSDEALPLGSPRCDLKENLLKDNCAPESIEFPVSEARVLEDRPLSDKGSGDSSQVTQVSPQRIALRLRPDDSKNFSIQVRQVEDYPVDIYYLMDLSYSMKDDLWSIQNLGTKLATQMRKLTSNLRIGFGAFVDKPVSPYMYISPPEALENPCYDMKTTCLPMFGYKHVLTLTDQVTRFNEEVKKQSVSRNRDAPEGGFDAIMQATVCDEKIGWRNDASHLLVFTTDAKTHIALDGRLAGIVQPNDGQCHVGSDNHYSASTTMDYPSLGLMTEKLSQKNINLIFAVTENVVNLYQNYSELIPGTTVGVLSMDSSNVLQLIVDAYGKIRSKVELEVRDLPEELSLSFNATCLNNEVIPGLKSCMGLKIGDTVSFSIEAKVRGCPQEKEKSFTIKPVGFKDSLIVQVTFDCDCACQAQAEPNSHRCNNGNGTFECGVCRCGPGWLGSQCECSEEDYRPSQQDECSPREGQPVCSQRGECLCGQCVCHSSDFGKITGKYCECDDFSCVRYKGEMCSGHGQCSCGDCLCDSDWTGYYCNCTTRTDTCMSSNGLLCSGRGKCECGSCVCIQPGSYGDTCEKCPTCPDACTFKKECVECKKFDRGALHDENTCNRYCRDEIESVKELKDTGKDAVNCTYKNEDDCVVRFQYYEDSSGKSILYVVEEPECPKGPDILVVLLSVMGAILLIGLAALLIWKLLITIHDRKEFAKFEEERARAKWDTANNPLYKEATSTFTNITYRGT
T1 sequence (P08514 32-887 limits assumed): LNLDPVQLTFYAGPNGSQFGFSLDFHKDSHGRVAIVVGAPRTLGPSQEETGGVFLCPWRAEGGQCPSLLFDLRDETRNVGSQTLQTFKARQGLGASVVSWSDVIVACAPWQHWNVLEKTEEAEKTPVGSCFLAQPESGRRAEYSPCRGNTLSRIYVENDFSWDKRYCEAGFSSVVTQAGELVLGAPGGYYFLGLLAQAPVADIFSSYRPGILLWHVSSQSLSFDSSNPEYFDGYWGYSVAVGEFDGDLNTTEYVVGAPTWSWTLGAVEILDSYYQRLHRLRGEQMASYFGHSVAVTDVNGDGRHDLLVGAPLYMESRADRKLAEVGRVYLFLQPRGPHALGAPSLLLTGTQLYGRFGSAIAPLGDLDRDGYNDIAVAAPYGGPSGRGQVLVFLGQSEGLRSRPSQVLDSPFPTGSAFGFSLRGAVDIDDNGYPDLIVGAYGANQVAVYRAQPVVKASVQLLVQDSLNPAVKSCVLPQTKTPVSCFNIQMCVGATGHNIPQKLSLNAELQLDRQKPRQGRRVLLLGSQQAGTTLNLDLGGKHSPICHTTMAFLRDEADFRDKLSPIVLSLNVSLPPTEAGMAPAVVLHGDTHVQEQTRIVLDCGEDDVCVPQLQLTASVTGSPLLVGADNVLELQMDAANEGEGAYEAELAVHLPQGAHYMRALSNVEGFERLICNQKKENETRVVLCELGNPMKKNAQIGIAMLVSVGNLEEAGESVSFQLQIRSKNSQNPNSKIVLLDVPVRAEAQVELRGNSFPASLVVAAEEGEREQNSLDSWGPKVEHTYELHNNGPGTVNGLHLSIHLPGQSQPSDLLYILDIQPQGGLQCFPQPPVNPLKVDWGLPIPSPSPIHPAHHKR
T1 sequence (P08514 891-1039 limits assumed): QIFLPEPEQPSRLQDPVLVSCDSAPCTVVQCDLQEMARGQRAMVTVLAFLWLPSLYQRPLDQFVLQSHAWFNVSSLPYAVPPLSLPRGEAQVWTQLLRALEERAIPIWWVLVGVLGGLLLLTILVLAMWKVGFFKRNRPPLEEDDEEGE

Consider `CCCC(CN1CCc2cc(OCc3ccc(C(=N)N)cc3)ccc2C1=O)C(=O)O` (stereo not drawn), for which the IC50 – broadly, the concentration that gives 50% inhibition – in test [1] stood at 1.8 µM.
In test [1], `CCCCC(CC(=O)O)N1CCc2cc(OCc3ccc(C(=N)N)cc3)ccc2C1=O` (stereo not drawn) returned an IC50 of 0.04 µM.
On to `COC(=O)c1ccc(C(CC(=O)O)N2CCc3cc(OCc4ccc(C(=N)N)cc4)ccc3C2=O)cc1` (stereo not drawn), for which the IC50 in test [1] was 0.006 µM.
As to `CCC(CC(=O)O)N1CCc2cc(OCc3ccc(C(=N)N)cc3)ccc2C1=O` (stereo not drawn), in test [1], the IC50 stood at 0.046 µM.
Still for that read-out and setting: as for `N=C(N)c1ccc(COc2ccc3c(c2)CCN(CCC(=O)O)C3=O)cc1`, the figure is 0.32 µM; as for `CCCC(CC(=O)O)N1CCc2cc(OCc3ccc(C(=N)N)cc3)ccc2C1=O` (stereo not drawn), 0.047 µM.
Regarding `CCCCCCC(CC(=O)O)N1CCc2cc(OCc3ccc(C(=N)N)cc3)ccc2C1=O` (stereo not drawn), the IC50 in test [1] worked out at 0.041 µM; in test [2], 0.31 µM; in test [3] it was 0.08 µM; in test [4], 0.041 µM.
On to `N=C(N)c1ccc(C(=O)Nc2ccc3c(c2)CCN(CC(=O)O)C3=O)cc1`, for which the IC50 in test [1] came out at 0.003 µM.
The same measure, in the same setting: the figure for `COCCOCC(CC(=O)O)N1CCc2cc(OCc3ccc(C(=N)N)cc3)ccc2C1=O` (stereo not drawn) is 0.09 µM.
Regarding `CCOCCCC(CC(=O)O)N1CCc2cc(OCc3ccc(C(=N)N)cc3)ccc2C1=O` (stereo not drawn), the results for the IC50 in test [2], in test [3] and in test [4] were 0.1 µM, 0.073 µM and 0.061 µM, respectively.
As to `CCCC(C(=O)O)N1CCc2cc(OCc3ccc(C(=N)N)cc3)ccc2C1=O` (stereo not drawn), in test [1], the IC50 amounted to 1.7 µM.
`CCCCCC(CC(=O)O)N1CCc2cc(OCc3ccc(C(=N)N)cc3)ccc2C1=O` (stereo not drawn): the IC50 in test [2] came out at 0.1 µM; in test [3] it was 0.04 µM; in test [4], 0.024 µM.
In test [1], `CC1(C)SSCCC(=O)N[C@@H](CCCNC(=N)N)C(=O)NCC(=O)N[C@@H](CC(=O)O)C(=O)N[C@@H](Cc2c[nH]c3ccccc23)C(=O)N2CCC[C@H]2C(=O)N[C@@H]1C(N)=O` ([Mpa]RGDWP[Pen]-NH2; disulfide 1-7) registered an IC50 of 0.1 µM.
Molecule `COc1ccc(C(CC(=O)O)N2CCc3cc(OCc4ccc(C(=N)N)cc4)ccc3C2=O)cc1` (stereo not drawn) returned an IC50 in test [1] of 0.008 µM.
The same measure, in the same setting: the figure for `N=C(N)c1ccc(COc2ccc3c(c2)CCN(C(CC(=O)O)c2ccccc2)C3=O)cc1` (stereo not drawn) is 0.007 µM; for `COCCCC(CC(=O)O)N1CCc2cc(OCc3ccc(C(=N)N)cc3)ccc2C1=O` (stereo not drawn) it is 0.056 µM.
